From patent publication US20240269298A1, “PHOSPHONYL DERIVATIVE, AND COMPOSITION AND PHARMACEUTICAL APPLICATION THEREOF” (XIZANG HAISCO PHARMACEUTICAL CO., LTD., priority 2021, published 2024)
Read-outs that look alike come from different tables or passages of the source.

Test system: NCI-H1975 (EGFR-L858R-T790M) cells
Test: Inhibitory activity on proliferation of NCI-H1975 (EGFR-L858R-T790M) cells (CTG, 72 h)
Type: cell-based
Conditions: Homo sapiens
Description: NCI-H1975 (EGFR-L858R-T790M) and A431 (EGFR-WT) cells were purchased from ATCC and cultured in an incubator at 37° C. with 5% CO2, and the culture mediums were RPMI1640+10% FBS and DMEM+10% FBS, respectively. On the first day, NCI-H1975 (EGFR-L858R-T790M) and A431 (EGFR-WT) cells in the logarithmic phase were collected, and viable cells were counted using an automatic cell analyzer (countstar). The cell suspensions were adjusted with the culture mediums and plated on a 96-well cell culture plate at 1000 cells/well for NCI-H1975 (EGFR-L858R-T790M) cells and at 3000 cells/well for A431 cells. The next day, the culture mediums were aspirated, and 90 μL of fresh culture mediums and 10 μL of the compounds at different concentrations were added to each well, wherein the final concentration of DMSO in each well was 0.1%. The plate was cultured in the incubator at 37° C. with 5% CO2 for 72 hours. After 72 hours of drug treatment, 50 μL of CTG solution (promega, G7572), which was already pre-melted and equilibrated to room temperature, was added to each well, and the mixtures were uniformly mixed for 2 min using a microplate shaker. The plate was placed at room temperature for 10 min, and then […] signal values were measured using a microplate reader (PHERAstar FSX).
Surviving cells % was calculated based on Vsample/Vvehicle control×100%, wherein Vsample was the readout of the drug-treated group, and Vvehicle control was the average value of the vehicle control group. Using the origin 9.2 software and nonlinear regression model, S-shaped dose-survival curves were plotted, and IC50 values were calculated.

[1] = read-out: IC50 (value in brackets)

IC50 (read-out: IC50 (class symbol))	IC50 [1]	SMILES
< 100 nM	10 nM	COc1cc(N2CCC(N3CCC4(CCCN(c5ccc6c(c5)C(=O)N(C5CCC(=O)NC5=O)C6=O)C4)CC3)CC2)c(-c2cnn(C)c2)cc1Nc1ncc(Br)c(Nc2ccc3nccnc3c2P(C)(C)=O)n1 (centres unmarked) [Compound 32, 5-(9-(1-(4-((5-bromo-4-((5-(dimethylphosphoryl)quinoxalin-6-yl)amino)pyrimidin-2-yl)amino)-5-methoxy-2-(1-methyl-1H-pyrazol-4-yl)phenyl)piperidin-4-yl)-2,9-diazaspiro[5.5]undecan-2-yl)-2-(2,6-dioxopiperidin-3-yl)isoindoline-1,3-dione]
100 to 500 nM		COc1cc(N2CCN(C3CCN(CC4CCN(c5ccc6c(c5)C(=O)N(C5CCC(=O)NC5=O)C6=O)CC4)CC3)CC2)c(C2CC2)cc1Nc1ncc(Cl)c(Nc2ccc3nccnc3c2P(C)(C)=O)n1 (centres unmarked) [Compound 26, 5-(4-((4-(4-(4-((5-chloro-4-((5-(dimethylphosphoryl)quinoxalin-6-yl)amino)pyrimidin-2-yl)amino)-2-cyclopropyl-5-methoxyphenyl)piperazin-1-yl)piperidin-1-yl)methyl)piperidin-1-yl)-2-(2,6-dioxopiperidin-3-yl)isoindoline-1,3-dione]
< 100 nM	59 nM	COc1cc(N2CCN(C3CCN(CC4CCN(c5ccc6c(c5)C(=O)N(C5CCC(=O)NC5=O)C6=O)CC4)CC3)CC2)c(-c2cnn(C)c2)cc1Nc1ncc(Cl)c(Nc2ccc3nccnc3c2P(C)(C)=O)n1 (centres unmarked) [Trifluoroacetate of compound 12, 5-(4-((4-(4-(4-((5-chloro-4-((5-(dimethylphosphoryl)quinoxalin-6-yl)amino)pyrimidin-2-yl)amino)-5-methoxy-2-(1-methyl-1H-pyrazol-4-yl)phenyl)piperazin-1-yl)piperidin-1-yl)methyl)piperidin-1-yl)-2-(2,6-dioxopiperidin-3-yl)isoindoline-1,3-dione]
< 100 nM	7 nM	COc1cc(N2CCC(N3CCC4(CCCN(c5ccc6c(c5)C(=O)N(C5CCC(=O)NC5=O)C6=O)C4)CC3)CC2)c(-c2cnn(C)c2)cc1Nc1ncc(Cl)c(Nc2ccc3nccnc3c2P(C)(C)=O)n1 (centres unmarked) [Compound 11, 5-(9-(1-(4-((5-chloro-4-((5-(dimethylphosphoryl)quinoxalin-6-yl)amino)pyrimidin-2-yl)amino)-5-methoxy-2-(1-methyl-1H-pyrazol-4-yl)phenyl)piperidin-4-yl)-2,9-diazaspiro[5.5]undecan-2-yl)-2-(2,6-dioxopiperidin-3-yl)isoindoline-1,3-dione]
< 100 nM	25 nM	COc1cc(N2CCN(C[C@H]3CCN(c4ccc5c(c4)C(=O)N(C4CCC(=O)NC4=O)C5=O)C3)CC2)c(-c2cnn(C)c2)cc1Nc1ncc(Cl)c(Nc2ccccc2P(C)(C)=O)n1 (stereo partly drawn) [Compound 120, 5-((R)-3-((4-(4-((5-chloro-4-((2-(dimethylphosphoryl)phenyl)amino)pyrimidin-2-yl)amino)-5-methoxy-2-(1-methyl-1H-pyrazol-4-yl)phenyl)piperazin-1-yl)methyl)pyrrolidin-1-yl)-2-(2,6-dioxopiperidin-3-yl)isoindoline-1,3-dione]
< 100 nM	64 nM	COc1cc(N2CCC(CN3CCN(c4ccc(C5CCC(=O)NC5=O)c(F)c4)CC3)CC2)c(-c2cnn(C)c2)cc1Nc1ncc(Cl)c(Nc2ccc(-c3ccccc3)cc2P(C)(C)=O)n1 (centres unmarked) [Compound 156, 3-(4-(4-((1-(4-((5-chloro-4-((3-(dimethylphosphoryl)-[1,1′-biphenyl]-4-yl)amino)pyrimidin-2-yl)amino)-5-methoxy-2-(1-methyl-1H-pyrazol-4-yl)phenyl)piperidin-4-yl)methyl)piperazin-1-yl)-2-fluorophenyl)piperidine-2,6-dione]
< 100 nM	33 nM	COc1cc(N2CCC(N3CCC4(CCCN(c5cc6c(cc5F)C(=O)N(C5CCC(=O)NC5=O)C6=O)C4)CC3)CC2)c(-c2cnn(C)c2)cc1Nc1ncc(Cl)c(Nc2ccc3nccnc3c2P(C)(C)=O)n1 (centres unmarked) [Compound 28, 5-(9-(1-(4-((5-chloro-4-((5-(dimethylphosphoryl)quinoxalin-6-yl)amino)pyrimidin-2-yl)amino)-5-methoxy-2-(1-methyl-1H-pyrazol-4-yl)phenyl)piperidin-4-yl)-2,9-diazaspiro[5.5]undecan-2-yl)-2-(2,6-dioxopiperidin-3-yl)-6-fluoroisoindoline-1,3-dione]
< 100 nM	20 nM	COc1cc(N2CCC3(CCN(CC4CCN(c5cc6c(cc5F)C(=O)N(C5CCC(=O)NC5=O)C6=O)CC4)CC3)CC2)c(-c2cnn(C)c2)cc1Nc1ncc(Cl)c(Nc2ccc3nccnc3c2P(C)(C)=O)n1 (centres unmarked) [Compound 27, 5-(4-((9-(4-((5-chloro-4-((5-(dimethylphosphoryl)quinoxalin-6-yl)amino)pyrimidin-2-yl)amino)-5-methoxy-2-(1-methyl-1H-pyrazol-4-yl)phenyl)-3,9-diazaspiro[5.5]undecan-3-yl)methyl)piperidin-1-yl)-2-(2,6-dioxopiperidin-3-yl)-6-fluoroisoindoline-1,3-dione]
100 to 500 nM		COc1cc(N2CCC(N3CCC(CN4CCCC5(CCN(c6ccc7c(c6)C(=O)N(C6CCC(=O)NC6=O)C7=O)CC5)C4)CC3)CC2)c(-c2cnn(C)c2)cc1Nc1ncc(Cl)c(Nc2ccc3nccnc3c2P(C)(C)=O)n1 (centres unmarked) [Compound 17, 5-(2-((1′-(4-((5-chloro-4-((5-(dimethylphosphoryl)quinoxalin-6-yl)amino)pyrimidin-2-yl)amino)-5-methoxy-2-(1-methyl-1H-pyrazol-4-yl)phenyl)-[1,4′-bipiperidin]-4-yl)methyl)-2,9-diazaspiro[5.5]undecan-9-yl)-2-(2,6-dioxopiperidin-3-yl)isoindoline-1,3-dione]
< 100 nM	19 nM	COc1cc(N2CCN(CC3CCN(c4ccc5c(c4)C(=O)N(C4CCC(=O)NC4=O)C5=O)CC3)CC2)c(-c2cnn(C)c2)cc1Nc1ncc(Br)c(Nc2ccccc2P(C)(C)=O)n1 (centres unmarked) [Compound 127, 5-(4-((4-(4-((5-bromo-4-((2-(dimethylphosphoryl)phenyl)amino)pyrimidin-2-yl)amino)-5-methoxy-2-(1-methyl-1H-pyrazol-4-yl)phenyl)piperazin-1-yl)methyl)piperidin-1-yl)-2-(2,6-dioxopiperidin-3-yl)isoindoline-1,3-dione]
< 100 nM	37 nM	COc1cc(N2CCC(C3CCN(CC4CCN(c5ccc6c(c5)C(=O)N(C5CCC(=O)NC5=O)C6=O)CC4)CC3)CC2)c(-c2cnn(C)c2)cc1Nc1ncc(Cl)c(Nc2ccc3nccnc3c2P(C)(C)=O)n1 (centres unmarked) [Trifluoroacetate of compound 13, 5-(4-((1′-(4-((5-chloro-4-((5-(dimethylphosphoryl)quinoxalin-6-yl)amino)pyrimidin-2-yl)amino)-5-methoxy-2-(1-methyl-1H-pyrazol-4-yl)phenyl)-[4,4′-bipiperidin]-1-yl)methyl)piperidin-1-yl)-2-(2,6-dioxopiperidin-3-yl)isoindoline-1,3-dione]
< 100 nM	13 nM	COc1cc(N2CCC(CN3CCC4(CCCN(c5ccc6c(c5)C(=O)N(C5CCC(=O)NC5=O)C6=O)C4)CC3)CC2)c(-c2cnn(C)c2)cc1Nc1ncc(Cl)c(Nc2ccc3nccnc3c2P(C)(C)=O)n1 (centres unmarked) [Compound 10, 5-(9-((1-(4-((5-chloro-4-((5-(dimethylphosphoryl)quinoxalin-6-yl)amino)pyrimidin-2-yl)amino)-5-methoxy-2-(1-methyl-1H-pyrazol-4-yl)phenyl)piperidin-4-yl)methyl)-2,9-diazaspiro[5.5]undecan-2-yl)-2-(2,6-dioxopiperidin-3-yl)isoindoline-1,3-dione]
< 100 nM	29 nM	COc1cc(N2CCC(CN3CCN(c4ccc(NC5CCC(=O)NC5=O)cc4F)CC3)CC2)c(-c2cnn(C)c2)cc1Nc1ncc(Cl)c(Nc2ccccc2P(C)(C)=O)n1 (centres unmarked) [Compound 157, 3-((4-(4-((1-(4-((5-chloro-4-((2-(dimethylphosphoryl)phenyl)amino)pyrimidin-2-yl)amino)-5-methoxy-2-(1-methyl-1H-pyrazol-4-yl)phenyl)piperidin-4-yl)methyl)piperazin-1-yl)-3-fluorophenyl)amino)piperidine-2,6-dione]
< 100 nM	72 nM	COc1cc(N2CCC3(CCN(CC4CCN(c5cc6c(cc5F)C(=O)N(C5CCC(=O)NC5=O)C6=O)CC4)CC3)CC2)c(-c2cnn(C)c2)cc1Nc1ncc(Cl)c(Nc2ccc(-c3ccccc3)cc2P(C)(C)=O)n1 (centres unmarked) [Compound 51, 5-(4-((9-(4-((5-chloro-4-((3-(dimethylphosphoryl)-[1,1′-biphenyl]-4-yl)amino)pyrimidin-2-yl)amino)-5-methoxy-2-(1-methyl-1H-pyrazol-4-yl)phenyl)-3,9-diazaspiro[5.5]undecan-3-yl)methyl)piperidin-1-yl)-2-(2,6-dioxopiperidin-3-yl)-6-fluoroisoindoline-1,3-dione]
